In patent US20250381277A1, “COMPOSITIONS AND METHODS FOR TREATMENT OF NEUROLOGICAL DISORDERS” (Dana-Farber Cancer Institute, Inc., priority 2022, published 2025):
Entries after “also recorded” stand apart in the source; their conditions may differ.

Key:
CD11c^− microglia = test: Apoptotic neuron (AN) uptake and CD11c^- to CD11c^+ differentiation of microglia with αVβ3 / TAM receptor inhibitors; type: cell-based, mouse; settings: P5 B6-WT CD11c^− microglia, 72 h with pHrodo-labeled ANs 1:1; cilengitide 10 μM, LDC1267 1 μM
Source text: (A) Brain single cell suspensions of 9-mo old WT mice were generated for validation of microglial CD11c expression by flow cytometry. We first gate on CD11b^+ cells from single/live cells followed by subsequent gating of CD11b^+CD45^low populations as potential microglia. […] In contrast, CCR2 but not Tmem 119 expression is detected in the CD11b^+CD45^high fraction, i.e., putative macrophage populations. Analysis of the CD11b^+CD45^low microglial population using FMO negative controls for these FACS plots confirms specificity. […] (B) The proportion of CD11c^+ microglia in C57BL/6 (B6) mice during early development and normal aging (n=3) was determined by flow cytometry analysis. CD11c^+ microglia were initially present at late embryonic day (E18.5), peaked at early postanal day (P5) and gradually declined to marginal levels in young adulthood (3-mon) followed by re-emergence and further expansion during aging. (C) CD11c^− microglia were isolated from P5 B6-WT mice by negative section with anti-CD11c magnetic beads (purity >99%) followed by co-incubation×72 h in the presence or absence of pHrodo fluorescent dye-labeled apoptotic neurons (ANs) at a 1:1 ratio. After 72 h incubation, 23% of total CD11c^− microglia had ingested ANs (AN^+), of which 77.4% of these AN^+ microglia were CD11c^+. […] Expression of CD11c was assessed in CD86^+ or MHC II^+ activated microglia. […]

[1] = tested on: CD11c^+ microglia of 9-mo old 5XFAD and OPN-KO.5XFAD mice; test: In vitro analysis of OPN-dependent inhibition of TREM2-lysosomal phagocytic pathway and Aβ degradation; type: cell-based, mouse; settings: rmOPN 12.5 μg/ml, anti-OPN Ab 10 μg/ml
Method: (a) Protocol of in vitro analysis of OPN-dependent inhibition of TREM2-lysosomal phagocytic pathway in 9-mo old 5XFAD and OPN-KO.5XFAD mice. […] (d) The MFI of FAM-Aβ 1-42 after 1 h's incubation was determined by flow cytometry in lysosomes of CD11c^+ microglia (CD11c^+CD68^+) and defined as Aβ MFI1h. MFI of retained FAM-Aβ in lysosomes of CD11c^+ microglia (CD11c^+CD68^+) 24 h after FAM-Aβ1-42 withdrawal was determined and defined as Aβ MFI24h. […] All data are presented as mean±s.e.m.
To test the impact of OPN on TREM2-lysosome activation and AR degradation, microglia enriched by anti-CD11b microbeads (purity >95%, Miltenyi) from 9-mo old 5XFAD and OPN-KO.5XFAD mice were seeded into 12-well plates at 3×10^5 cells/well in conventional microglia culture medium (DMEM-F12 with 10% fetal bovine serum+10% penicillin/streptomycin+10 ng/ml recombinant mouse M-CSF). Microglia were then pre-incubated with anti-OPN Ab (10 μg/ml) for 1 h followed by the incubation with rmOPN ([…]) overnight. Then FAM-labeled Aβ1-42 peptide (1 μM) was added into culture for 1 h. Mean fluorescence intensity (MFI) of FAM-Aβ1-42 in lysosomes of CD11c^+ microglia (CD11c^+CD68^+) after 1 h's incubation was determined by flow cytometry and defined as Aβ MFI1h. FAM-Aβ1-42 was then withdrawn, and cells were cultured for 24 h in the presence or absence with anti-OPN Ab (10 μg/ml) and/or rmOPN (12.5 μg/ml) before analysis of CD11c^+ microglial expression of TREM2, CD68 and MFI of retained FAM-Aβ1-42 in CD11c^+CD68^+ microglia (defined as Aβ MFI24h) by flow cytometry. Aβ degradation rate was calculated as (Aβ MFI1h−Aβ MFI24h)/Aβ MFI1h.

reduction of AN uptake by CD11c^− microglia (CD11c^− microglia)	Molecule	Aβ degradation rate [(Aβ MFI1h−Aβ MFI24h)/Aβ MFI1h] in lysosomes of CD11c^+ microglia ([1]; FAM-Aβ1-42 1 μM)	CD68 expression in CD11c^+ microglia ([1]; OPN-KO.5XFAD microglia)	TREM2 expression in CD11c^+ microglia ([1]; OPN-KO.5XFAD microglia)
about 50%	CC(C)[C@H]1C(=O)N[C@@H](CCCN=C(N)N)C(=O)NCC(=O)N[C@@H](CC(=O)O)C(=O)N[C@H](Cc2ccccc2)C(=O)N1C [Cilengitide]	–	–	–
–	rmOPN: recombinant mouse OPN (osteopontin)	substantial reduction of Aβ degradation; also recorded: significantly reduced the Aβ degradation rate	reduced expression of CD68; also recorded: significantly reduced	sharply inhibited; also recorded: sharply reduced
